The test system of this experiment is BDF1 mice, P388 leukemia ip, median survival T/C. In words: NCI In Vivo Anticancer Drug Screen. Data for tumor model P388 Leukemia (intraperitoneal) in B6D2F1 (BDF1) mice. To be noted: endpoint: median survival time, higher = longer survival. In short, it runs like this: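 Mice carrying the transplantable tumour receive compound or vehicle. Survival is followed in each arm, and the treated measure is divided by the vehicle measure.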

Where [1] appears, read: dose: 50.0 mg/kg/injection, schedule: Q01DX009 (ip), vehicle: Klucel (hydroxypropylcellulose) (HPC).
The mark [2] stands for this setting: dose: 100.0 mg/kg/injection, schedule: Q01DX009 (ip), vehicle: Klucel (hydroxypropylcellulose) (HPC).
Where [3] appears, read: dose: 100.0 mg/kg/injection, schedule: Q01DX009 (ip), vehicle: saline with Tween-80.
The mark [4] stands for this setting: dose: 200.0 mg/kg/injection, schedule: Q01DX009 (ip), vehicle: Klucel (hydroxypropylcellulose) (HPC).
[5] abbreviates: dose: 100.0 mg/kg/injection, schedule: Q04DX003 (ip), vehicle: saline with Tween-80.
The mark [6] stands for this setting: dose: 200.0 mg/kg/injection, schedule: Q04DX003 (ip), vehicle: saline with Tween-80.
[7] abbreviates: dose: 400.0 mg/kg/injection, schedule: Q04DX003 (ip), vehicle: saline with Tween-80.
Setting [8] is: dose: 50.0 mg/kg/injection, schedule: Q04DX003 (ip), vehicle: saline.
Setting [9] is: dose: 100.0 mg/kg/injection, schedule: Q04DX003 (ip), vehicle: saline.
Where [10] appears, read: dose: 50.0 mg/kg/injection, schedule: Q01DX009 (ip), vehicle: saline with Tween-80.
The mark [11] stands for this setting: dose: 12.5 mg/kg/injection, schedule: Q01DX009 (ip), vehicle: saline with Tween-80.
Setting [12] is: dose: 25.0 mg/kg/injection, schedule: Q01DX009 (ip), vehicle: saline with Tween-80.

“And” between values parts separate entries of the source, which are not always exact repeats. Equal values may be shown once. Inconclusive results and toxic doses are left out.

`Nc1cc(N)nc(S(=O)O)n1`: the T/C runs as follows: (dose: 25.0 mg/kg/injection, schedule: Q01DX009 (ip), vehicle: Klucel (hydroxypropylcellulose) (HPC)) 95 % of control and 111 % of control and 120 % of control; (dose: 25.0 mg/kg/injection, schedule: Q04DX003 (ip), vehicle: Klucel (hydroxypropylcellulose) (HPC)) 104 % of control; under setting [1], 95 % of control; (dose: 50.0 mg/kg/injection, schedule: Q04DX003 (ip), vehicle: Klucel (hydroxypropylcellulose) (HPC)) 95 % of control; under setting [2], 90 % of control and 110 % of control; (dose: 100.0 mg/kg/injection, schedule: Q04DX003 (ip), vehicle: Klucel (hydroxypropylcellulose) (HPC)) 100 % of control.
Regarding `CS(=O)(=O)C(=Cc1ccccc1Cl)S(C)(=O)=O`, the T/C was 104 % of control (dose: 100.0 mg/kg/injection, schedule: Q01DX009 (ip), vehicle: saline); 118 % of control (dose: 200.0 mg/kg/injection, schedule: Q01DX009 (ip), vehicle: saline); 121 % of control (dose: 400.0 mg/kg/injection, schedule: Q01DX009 (ip), vehicle: saline).
Turning to `CN=S(=O)(OCC#CCOS(=O)(=NC)c1ccc(C)cc1)c1ccc(C)cc1` (stereo not given), the T/C was 151 % of control (dose: 50.0 mg/kg/injection, schedule: Q01DX009 (ip), vehicle: saline + alcohol); 87 % of control (dose: 100.0 mg/kg/injection, schedule: Q01DX009 (ip), vehicle: saline + alcohol); 94 % of control under setting [3].
For the compound `CC(C)(C)OC(=O)NNC(=O)c1ccc([N+](=O)[O-])cc1`, the T/C is, setting by setting: under setting [1], 90 % of control; under setting [4], 95 % of control.
As for `OC1C2CC3C1C3C2O` (stereo not given), the T/C runs as follows: under setting [5], 86 % of control; under setting [6], 100 % of control; under setting [7], 104 % of control.
In the case of `COc1cc(C(Cc2ccnc3ccccc23)Cc2ccnc3ccccc23)ccc1N(C)C`, the T/C under setting [5] is 91 % of control, the T/C under setting [6] is 104 % of control and the T/C under setting [7] is 115 % of control.
As for `O=C(Nc1ccc(C2=NCCCN2)cc1)c1ccc(C(=O)Nc2ccc(C3=NCCCN3)cc2)cc1`, the T/C is, setting by setting: (dose: 7.2 mg/kg/injection, schedule: Q04DX003 (ip), vehicle: Klucel (hydroxypropylcellulose) (HPC)) 177 % of control; (dose: 8.7 mg/kg/injection, schedule: Q04DX003 (ip), vehicle: saline with Tween-80) 152 % of control; (dose: 10.8 mg/kg/injection, schedule: Q04DX003 (ip), vehicle: other) 194 % of control; (dose: 12.0 mg/kg/injection, schedule: Q04DX003 (ip), vehicle: Klucel (hydroxypropylcellulose) (HPC)) 194 % of control; (dose: 13.2 mg/kg/injection, schedule: Q04DX003 (ip), vehicle: saline with Tween-80) 168 % of control and 172 % of control; (dose: 18.0 mg/kg/injection, schedule: Q04DX003 (ip), vehicle: other) 203 % of control. In addition, the T/C by setting is: (dose: 20.0 mg/kg/injection, schedule: Q04DX003 (ip), vehicle: Klucel (hydroxypropylcellulose) (HPC)) 250 % of control; (dose: 20.0 mg/kg/injection, schedule: Q04DX003 (ip), vehicle: saline with Tween-80) 250 % of control and 195 % of control; (dose: 30.0 mg/kg/injection, schedule: Q04DX003 (ip), vehicle: other) 97 % of control; (dose: 30.0 mg/kg/injection, schedule: Q04DX003 (ip), vehicle: saline with Tween-80) 268 % of control and 272 % of control; (dose: 33.3 mg/kg/injection, schedule: Q04DX003 (ip), vehicle: Klucel (hydroxypropylcellulose) (HPC)) 250 % of control.
Take `c1ccc(SCN2CCN(CSc3ccccc3)CC2)cc1`: the T/C (dose: 50.0 mg/kg/injection, schedule: Q01DX001 (ip), vehicle: saline) is 95 % of control and the T/C (dose: 100.0 mg/kg/injection, schedule: Q01DX001 (ip), vehicle: saline) was 109 % of control.
Take `CC12C3C(=O)NC45CCCC41C5(c1ccccc1)C32c1ccccc1` (stereo not given): the T/C is 95 % of control (dose: 100.0 mg/kg/injection, schedule: Q01DX001 (ip), vehicle: saline sonified); 95 % of control (dose: 200.0 mg/kg/injection, schedule: Q01DX001 (ip), vehicle: saline sonified); 86 % of control (dose: 400.0 mg/kg/injection, schedule: Q01DX001 (ip), vehicle: saline sonified).
On to `CCN(CC)CCCOC(=O)/C=C/c1c(C)[nH]c(=O)[nH]c1=O`, for which the T/C (dose: 25.0 mg/kg/injection, schedule: Q04DX003 (ip), vehicle: saline) is 104 % of control; the T/C under setting [8] is 117 % of control; the T/C under setting [9] is 90 % of control.
Regarding `NC(Cc1c[nH]c2ccccc12)C(=O)OCc1ccccc1` (stereo not given), the T/C is 106 % of control (dose: 3.12 mg/kg/injection, schedule: Q01DX009 (ip), vehicle: water); 100 % of control (dose: 3.12 mg/kg/injection, schedule: Q04DX003 (ip), vehicle: water); 101 % of control (dose: 6.25 mg/kg/injection, schedule: Q01DX009 (ip), vehicle: water); 88 % of control (dose: 6.25 mg/kg/injection, schedule: Q04DX003 (ip), vehicle: water); 93 % of control (dose: 12.5 mg/kg/injection, schedule: Q01DX009 (ip), vehicle: water); 123 % of control (dose: 12.5 mg/kg/injection, schedule: Q04DX003 (ip), vehicle: water). For the same compound, the T/C (dose: 25.0 mg/kg/injection, schedule: Q01DX009 (ip), vehicle: water) was 97 % of control; the T/C (dose: 25.0 mg/kg/injection, schedule: Q04DX003 (ip), vehicle: water) was 108 % of control; the T/C (dose: 50.0 mg/kg/injection, schedule: Q01DX009 (ip), vehicle: water) is 92 % of control; the T/C (dose: 50.0 mg/kg/injection, schedule: Q04DX003 (ip), vehicle: water) was 97 % of control; the T/C (dose: 100.0 mg/kg/injection, schedule: Q01DX009 (ip), vehicle: water) was 101 % of control; the T/C (dose: 200.0 mg/kg/injection, schedule: Q01DX009 (ip), vehicle: water) is 110 % of control.
As for `Cn1cnc([N+](=O)[O-])c1Sc1ncnc2c1ncn2C1OC(CO)C(O)C1O` (stereo not given), the T/C was 113 % of control under setting [1], 154 % of control under setting [2] and 122 % of control under setting [4].
As for `O=C(O)Cc1c[nH]c2cccc(Cl)c12`, the T/C reads like this: under setting [10], 93 % of control; under setting [3], 98 % of control; (dose: 200.0 mg/kg/injection, schedule: Q01DX009 (ip), vehicle: saline with Tween-80) 100 % of control.
Regarding `CS(C)=O.CS(C)=O.CS(C)=O.[Cl][Rh]([Cl])[Cl]`, the T/C (dose: 3.12 mg/kg/injection, schedule: Q01DX009 (ip), vehicle: saline) is 114 % of control; the T/C (dose: 6.25 mg/kg/injection, schedule: Q01DX009 (ip), vehicle: saline) was 114 % of control; the T/C (dose: 12.5 mg/kg/injection, schedule: Q01DX009 (ip), vehicle: saline) is 116 % of control; the T/C (dose: 25.0 mg/kg/injection, schedule: Q01DX009 (ip), vehicle: saline) was 104 % of control and 116 % of control; the T/C (dose: 50.0 mg/kg/injection, schedule: Q01DX009 (ip), vehicle: saline) is 116 % of control; the T/C under setting [8] is 100 % of control. Under setting [9], the T/C was 109 % of control.
Regarding `Clc1nc2nnnn2c2ccccc12`, the T/C is 94 % of control (dose: 20.0 mg/kg/injection, schedule: Q01DX009 (ip), vehicle: saline) and 95 % of control (dose: 40.0 mg/kg/injection, schedule: Q01DX009 (ip), vehicle: saline).
Turning to `CCC(=O)O[C@H]1CC[C@H]2[C@@H]3CC(=C(Br)Br)C4=CC(=O)CC[C@]4(C)[C@H]3CC[C@]12C`, the T/C was 91 % of control under setting [11]; 100 % of control under setting [12]; 86 % of control and 90 % of control under setting [10].
In the case of `O=C1NC(Cc2ccccc2)C(=O)NC1Cc1ccccc1` (stereo not given), the T/C (dose: 6.25 mg/kg/injection, schedule: Q01DX009 (ip), vehicle: saline with Tween-80) was 106 % of control; the T/C under setting [11] was 101 % of control; the T/C under setting [12] was 108 % of control.
`Cc1cc(C)nc(NC(N)=NCCc2ccccc2)n1`: the T/C runs as follows: under setting [11], 100 % of control; under setting [12], 95 % of control; under setting [10], 100 % of control.

(Values after PubChem BioAssay AID328 (DTP/NCI, 2004).)
